Data published in US10709690B2, “Combination therapy with nitrated lipids and inhibitors of the renin-angiotensin-aldosterone system” (THE UNIVERSITY OF UTAH RESEARCH FOUNDATION, priority 2011, dated 2020).

Legend:
Assay type in all cases: in vivo
[1] = test system: db/db mice; experiment: Urinary albumin in db/db mice, 12-day treatment; settings: 12-day study, OA-NO2 10 mg/kg/d via osmotic mini-pump, losartan via diet; for changes of urinary albumin relative to the vehicle group: + increase, − decrease in albuminuria
Experimental: FIG. 1 is a bar graph comparing the amounts of urinary albumin in db/db mice before and after a 12 day (12-d) administration of vehicle, losartan, nitrooleic acid (OA-NO2), or losartan+OA-NO2. Lean mice (non-diabetic) with vehicle treatment were used as controls. losartan was administered via diet, while OA-NO2 and vehicle were each infused via osmotic mini-pump. Lean: n=5; vehicle: n=10; losartan: n=8; OA-NO2: n=9; losartan+OA-NO2: n=10. Data are mean±SE. Male 3-4-month-old db/db mice were from Jackson Laboratories (Bar Harbor, Me.). All animals were housed in an air-conditioned room with a 12-hour light/dark cycle. All procedures and protocols were in accordance with guidelines set by the Laboratory Animal Care Committee at the University of Utah. 9-Nitrooleic acid and 10-nitrooleic acid are two regioisomers of nitrooleic acid (OA-NO2), which are formed by nitration of oleic acid in approximately equal proportions ([…] et al. Chemistry Letters pp. 1109-1112, 1982). The two compounds were purchased from Cayman Chemicals (Ann Arbor, Mich.) (9-nitrooleic acid: Cat #10008042; 10-nitrooleic acid: Cat #10008043) and used as an 1:1 mixture of the isomers. db/db mice were implanted with a 3-week osmotic mini-pump which delivered a vehicle or OA-NO2 at 10 mg/kg/d. Animals were fed with losartan, which is an AT1 blocker. 24-h urine samples were collected before and after the treatment. […] The plus symbol (+) means an increase and the minus symbol (-) indicates a decrease in albuminuria.

[2] = test system: db/db mice; experiment: Urinary TBARS in db/db mice, 12-day treatment; settings: OA-NO2 10 mg/kg/d via osmotic mini-pump, losartan via diet; for effect on urinary TBARS (in words): 12 days; for changes of urinary TBARS relative to the vehicle group: after 12 days
Experimental: (§1) FIG. 2 is a bar graph comparing the amounts of urinary thiobarbituric acid reactive substances (TBARS) in db/db mice before and after 12-d infusion with vehicle, losartan, nitrooleic acid (OA-NO2), or losartan+OA-NO2. Lean mice (non-diabetic) with vehicle treatment were used as controls. Losartan was administered via diet, while vehicle and OA-NO2 were each infused via osmotic mini-pump. Lean: n=5; vehicle: n=10; losartan: n=8; OA-NO2: n=9; losartan+OA-NO2: n=10. Data are mean±SE. Male 3-4-month-old db/db mice were from Jackson Laboratories (Bar Harbor, Me.). All animals were housed in an air-conditioned room with a 12-hour light/dark cycle. All procedures and protocols were in accordance with guidelines set by the Laboratory Animal Care Committee at the University of Utah. 9-Nitrooleic acid and 10-nitrooleic acid are two regioisomers of nitrooleic acid (OA-NO2), which are formed by nitration of oleic acid in approximately equal proportions ([…] et al. Chemistry Letters pp. 1109-1112, 1982). The two compounds were purchased from Cayman Chemicals (Ann Arbor, Mich.) (9-nitrooleic acid: Cat #10008042; 10-nitrooleic acid: Cat #10008043) and used as an 1:1 mixture of the isomers. db/db mice were implanted with a 3-week osmotic mini-pump which delivered a vehicle or OA-NO2 at 10 mg/kg/d. Animals were fed with losartan, which is an AT1 blocker. 24-h urine samples were collected before and after the treatment.

[3] = test system: db/db mice; experiment: Renal TBARS in db/db mice, 12-day treatment; settings: 12 days, OA-NO2 10 mg/kg/d via osmotic mini-pump, losartan via diet
Description: as §1, with “Lean” for “FIG. 2 is a bar graph comparing the amounts of urinary thiobarbituric acid reactive substances (TBARS) in db/db mice before and after 12-d infusion with vehicle, losartan, nitrooleic acid (OA-NO2), or losartan+OA-NO2. Lean”, “Losartan was administered via diet, while vehicle and OA-NO2 were each infused via osmotic mini-pump.” left out

[4] = test system: renal COX-2 protein; experiment: Renal COX-2 protein expression in db/db mice by immunoblotting; settings: 12 days; for changes of renal COX-2 protein expression relative to the vehicle group: OA-NO2 10 mg/kg/d via osmotic mini-pump, losartan via diet
Experimental: Lean mice (non-diabetic) with vehicle treatment were used as controls. Renal COX-2 protein was analyzed by using immunoblotting.
Male 3-4-month-old db/db mice were from Jackson Laboratories (Bar Harbor, Me.). All animals were housed in an air-conditioned room with a 12-hour light/dark cycle. All procedures and protocols were in accordance with guidelines set by the Laboratory Animal Care Committee at the University of Utah.
9-Nitrooleic acid and 10-nitrooleic acid are two regioisomers of nitrooleic acid (OA-NO2), which are formed by nitration of oleic acid in approximately equal proportions (Hayama et al. Chemistry Letters pp. 1109-1112, 1982). The two compounds were purchased from Cayman Chemicals (Ann Arbor, Mich.) (9-nitrooleic acid: Cat #10008042; 10-nitrooleic acid: Cat #10008043) and used as an 1:1 mixture of the isomers.
db/db mice were implanted with a 3-week osmotic mini-pump which delivered a vehicle or OA-NO2 at 10 mg/kg/d. Animals were fed with losartan, which is an AT1 blocker. 24-h urine samples were collected before and after the treatment.
Renal COX-2 expression in db/db mice treated as above was examined by immunoblotting.

[5] = test system: renal heme oxygenase-1 (HO-1) protein; experiment: Renal heme oxygenase-1 protein expression in db/db mice by immunoblotting; settings: 12 days; for changes of renal HO-1 protein expression relative to the vehicle group: OA-NO2 10 mg/kg/d via osmotic mini-pump, losartan via diet
Experimental: as §1, with “Lean” for “FIG. 2 is a bar graph comparing the amounts of urinary thiobarbituric acid reactive substances (TBARS) in db/db mice before and after 12-d infusion with vehicle, losartan, nitrooleic acid (OA-NO2), or losartan+OA-NO2. Lean”, “Renal HO-1 protein” for “Losartan”, “analyzed by using immunoblotting. […]” for “administered via diet, while vehicle and OA-NO2 were each infused via osmotic mini-pump. Lean: n=5; vehicle: n=10; losartan: n=8; OA-NO2: n=9; losartan+OA-NO2: n=10. Data are mean±SE.”, “treatment. Renal HO-1 expression was examined using immunoblotting.” for “treatment.”

Compound: CCCCc1nc(Cl)c(CO)n1Cc1ccc(-c2ccccc2-c2nn[nH]n2)cc1 [losartan]
- effect on urinary albumin excretion (in words) [1]: Neither losartan or OA-NO2 alone exhibited a statistically significant effect
- changes of urinary albumin relative to the vehicle group [1]: +7%
- effect on urinary TBARS (in words) [2]: without an effect
- changes of urinary TBARS relative to the vehicle group [2]: +33.4%
- effect on renal TBARS content (in words) [3]: trend of reduction but none of these changes reached statistical significance
- effect on renal COX-2 expression (in words) [4]: modest effect
- changes of renal COX-2 protein expression relative to the vehicle group [4]: −5.3%
- effect on renal HO-1 expression (in words) [5]: elevated
- changes of renal HO-1 protein expression relative to the vehicle group [5]: +97.6%

Compound: nitrooleic acid [OA-NO2]
- effect on urinary albumin excretion (in words) [1]: Neither losartan or OA-NO2 alone exhibited a statistically significant effect
- changes of urinary albumin relative to the vehicle group [1]: −13%
- effect on urinary TBARS (in words) [2]: without an effect
- changes of urinary TBARS relative to the vehicle group [2]: +16.5%
- effect on renal TBARS content (in words) [3]: trend of reduction but none of these changes reached statistical significance
- effect on renal COX-2 expression (in words) [4]: modest effect
- changes of renal COX-2 protein expression relative to the vehicle group [4]: −14.8%
- effect on renal HO-1 expression (in words) [5]: elevated
- changes of renal HO-1 protein expression relative to the vehicle group [5]: +48.8%
